Measured values reported in patent publication US10413583B2, “Synthetic substrates for enzymes that catalyze reactions of modified cysteines and related methods” (The University of Chicago, priority 2016, dated 2019).

How the values were obtained:
APT1 = molecular target: T1, APT1 (Homo sapiens, UniProt O75608); assay: In vitro kinetic assay and emission spectra of DPP-1, DPP-2, DPP-3 with purified APT1 (with detergent); format: biochemical
T1 construct: His-tag; made in house; host or cells: E. coli ROSETTA DE3
T1 sequence (O75608 whole entry): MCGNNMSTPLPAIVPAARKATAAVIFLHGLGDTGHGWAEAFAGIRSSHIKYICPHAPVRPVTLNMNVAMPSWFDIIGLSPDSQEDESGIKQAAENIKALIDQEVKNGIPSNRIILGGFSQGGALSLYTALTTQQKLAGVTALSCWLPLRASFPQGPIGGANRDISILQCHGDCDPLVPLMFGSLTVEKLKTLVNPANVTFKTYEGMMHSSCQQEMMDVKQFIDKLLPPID
Experimental: (§1) 50 μL of 7.5 μM DPP1-3 in HEPES (20 mM, pH=7.4, 150 mM NaCl, 0.1% Triton X-100) were added to a 384-well black flat bottom plate (Corning Life Sciences, Corning, N.Y., United States of America) and placed in an Infinite M200 Pro (Tecan, Mannedorf, Switzerland) plate reader at 37° C. for 5 min to warm. 25 μL of either 4-(2-hydroxyethyl)-1-piperazineethanesulfonic acid (HEPES) buffer alone or HEPES buffer containing 150 nM APT1 or APT2, was added using a multi-channel pipette, resulting in a final concentration of 5 μM DPP1-3 and 50 nM APT1 or APT2. Fluorescence intensities (λex 490/9 nm, λem 545/20 nm, Gain 70, No. of flashes 25, Integration time 100 μs and Z-position 20000 μm) were measured at 30 second (s) time intervals for 20 min. At the end of 20 min kinetic run, emission spectra were obtained (λex 485 nm, Aem510-700 nm, Gain 100, No. of flashes 25, Integration time 100 μs and Z-position 20,000 μm).

APT2 = molecular target: T2, APT2 (Homo sapiens, UniProt O95372); assay: In vitro kinetic assay and emission spectra of DPP-1, DPP-2, DPP-3 with purified APT2 (with detergent); format: biochemical
T2 construct: His-tag; made in house; host or cells: E. coli ROSETTA DE3
T2 sequence (O95372 whole entry): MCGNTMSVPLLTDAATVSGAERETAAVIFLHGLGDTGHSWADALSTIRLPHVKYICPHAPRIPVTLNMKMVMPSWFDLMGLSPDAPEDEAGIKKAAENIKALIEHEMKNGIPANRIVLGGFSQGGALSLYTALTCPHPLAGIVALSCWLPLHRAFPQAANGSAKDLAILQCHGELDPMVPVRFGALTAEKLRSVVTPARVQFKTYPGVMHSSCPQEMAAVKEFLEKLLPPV
Experimental: as §1

[1] = Water solubility of probes (stated in words); format: physicochemical
HEK293T cells = assay: Live cell fluorescence imaging and flow cytometry of DPP-2 and DPP-3 in HEK293T cells; format: cell-based, human; conditions: 1 μM DPP-2 for 15 min, microscopy or flow cytometry
Experimental: HEK293T (650,000 cells per dish) cells were plated with 1.5 mL of Dulbecco's Modified Eagle Medium (DMEM) (High Glucose, 10% fetal bovine serum (FBS)) in a 35 mm glass bottom dish (D35-10-1.5-N; Cellvis, Mountain View, Calif., United States of America) 24 hrs prior to imaging. 30 min before the addition of the DPP probe, the cell culture media was removed and cells were washed with 1 mL of Delbecco's phosphate-buffered saline (DPBS). The media was then replaced with 1 mL of DMEM containing 1 μM Hoechst 33342 and either 0.1% DMSO carrier as a control, 1 or 2 μM Palm B, 0.1, 1.0, or 5 μM ML348, and incubated for 30 min at 37° C. and 5% CO2. The media was removed, the cells were washed with 1 mL of Live Cell Imaging Solution (Thermo Fisher Scientific, Waltham, Mass., United States of America), and 1 mL of 1 μM DPP-2 or DPP-3 in Live Cell Imaging Solution was added to each plate. For ML348 0.1, 1.0, or 5 μM was added along with DPP-2 or DPP-3. After incubation for 15 min at 37° C. and 5% CO2, images were obtained on an inverted epi-fluorescence microscope (Olympus IX83; Olympus Corporation, Tokyo, Japan) attached with EMCCD camera (Photometrics EVOLVE™ Delta; Photometrics, Tucson, Ariz., United States of America) with 40× oil objective (N/A 1.3) for DPP-2 (excitation filter 500/20, dichroic chroma 89007, emission filter 535/30, exposure time 200 ms, EM gain 25), Hoechst 33342: (excitation filter 402/15, emission filter 455/50, dichroic chroma 89013, exposure time 30 ms, EM gain 25), and brightfield (exposure time 5 ms, EM gain 5), and for DPP-3 (exposure time 500 ms, EM gain 150), Hoechst 33342: (exposure time 30 ms, EM gain 25), and brightfield (exposure time 20 ms, EM gain 5). Analyses were performed in ImageJ. For data analysis, the average fluorescence intensity per image in each experimental condition was obtained by selecting regions of interest (ROIs) in the brightfield image. For display, the data were normalized to the average fluorescence intensity of the control conditions. Each experiment was repeated at least three separate times with identical results.
Cells were plated on a 10 cm dish with 10 mL of DMEM/High Glucose (10% FBS, 1% P/S, L-Glutamine, Sodium pyruvate) 36-48 hours prior to the day of experiment and maintained at 37° C., 5% CO2 so as to obtain 80-90% confluency. Cells were washed with DPBS and trypsinized with 1 mL 0.05% Trypsin. 5 mL of DMEM/High Glucose (10% FBS, L-Glutamine, Sodium pyruvate) was added and cells were spun down at 1200 rpm for 3 min. Media was discarded and cells were resuspended in 5 mL of Live Cell Imaging Solution and again spun down at 1200 rpm for 3 min. The cells pellets obtained were resuspended in 3-5 mL of Live Cell Imaging Solution and divided into 500 μL aliquots. The aliquots were treated with either 0.2% DMSO carrier or 1 μM of PalmB/ML348 or 1 μM/5 μM of ML349 inhibitor. After 30 min of incubation at room temperature, 1 μL of 2.5 mM DPP-3 in DMSO was added to each aliquot for a final concentration of 5 μM, and the solutions were mixed. After 5 min incubation at room temperature, fluorescence signal in FITC channel was measured for 10000 cells (5000 for HeLa experiments) on a LSR-Fortessa 4-15 HTS (BD digital instrument, 488 nm laser with 530/30 nm filter for FITC; BD, Franklin Lakes, N.J., United States of America). For analyzing DPP2 in HEK293T cells, the aliquots were treated with either 0.2% DMSO carrier or 2 μM of PalmB, 5 or 20 μM of ML348/ML349 and then analyzed by the protocol as mentioned above. Data was analyzed by FlowJo software version 10.0.8. For comparison of A431 starved versus non-starved, parallel 10 cm dishes of A431 cells were plated in 10 mL of DMEM (high glucose, 10% FBS, 1% P/S), and grown for 36 h. The growth media was removed, and replaced by 10 mL of either DMEM (High glucose) with 10% FBS to maintain “growth” conditions, or DMEM (High glucose) without FBS respectively for “starvation” conditions, and incubated for 14 h. […]

- enhancement in fluorescence signal (APT1; 5 μM probe, 50 nM APT1, 20 min): 200 fold
- performance as substrate / reaction kinetics (APT1; purified APT1): slightly better than DPP-1
- performance as substrate (APT2): slightly better than DPP-1
- water solubility [1]: water soluble
SMILES: CCCCCCCC(=O)SC[C@@H](C(=O)NC)N(C)C(=O)Oc1ccc2c(c1)Oc1cc(N(C)C)ccc1C21OC(=O)c2ccccc21 (some centres unmarked) [DPP-2]
- probe fluorescent signal in live cells (HEK293T cells): robust intracellular fluorescent signal
